Reference: publication PMC6450887, “Metabolic resistance of the D-peptide RD2 developed for direct elimination of amyloid-β oligomers” (Scientific Reports, 2019)
Several values for one entry are separate records, joined by “and”; a condition that tells them apart may be missing. Equal values may be shown once. Values belong to the molecule of their own block, whether it stands above or below them. Non-standard residues stand in square brackets, D forms with d. Residues, ends and D or L forms follow the SMILES beside them. No end group written: not given here. *: point of attachment. X1 = C[C@H](O)[C@H](C(=O)*)N1CN2CCC[C@@H]2C1=O

How the values were obtained:
[1] = Comparison of RD2 metabolite profiles across species: cynomolgus liver microsomes; assay type: in vitro ADME, cynomolgus monkey; details: cynomolgus microsome batches, LC-MS
Method: (§1) The preparation of the media was performed as described before in Elfgen et al.[24]. Preparation of simulated gastric and intestinal fluid (SGF & SIF) was done according to the European Pharmacopoeia 7.0. Plasma samples were obtained from human blood of a volunteer donor. Pooled human liver microsomes were purchased from Sekisui XenoTech (Kansas City, USA; H1000, Lot: 0710494 and 1210270; H1500, Lot: 1210079), from Sigma-Aldrich (St. Louis, USA; M0692, Lot: SLBL1433V; M0567, Lot: SLBR2706V and SLBN7300V) and from Gibco, Thermo Fisher Scientific (Waltham, USA; HMMCPL, Lot: PL050; HMMCPM, Lot: PL039). Pooled Sprague Dawley rat liver microsomes were purchased from Sigma-Aldrich (St. Louis, USA; M9066, Lot: SLBN0707V) and from Gibco, Thermo Fisher Scientific (Waltham, USA; RTMCPL, Lot: RT053). Pooled cynomolgus monkey liver microsomes were purchased from Gibco, Thermo Fisher Scientific (Waltham, USA; MKMCPL, Lot: MK062) and from Sekisui XenoTech (Kansas City, USA; P2000, Lot: 1210334). The liver microsomes were diluted in an NADPH regenerating system (NRS).
(§2) For the stability tests, 150 µM RD2 or L-RD2 was incubated in SGF, SIF, human plasma and human liver microsomes in triplicate at 37 °C with slight shaking for different time periods. To prevent microbial contaminations in long-term plasma incubations, 0.1% sodium azide was added to the solutions. Microsomal long-term activity was examined by incubating microsomes without peptide for up to 24 h and adding L-RD2 after 8 and 24 h. The ability to degrade L-RD2 served as indicator for their activity. For the comparison of RD2 metabolite profiles across species, 150 µM RD2 was incubated in human, rat and cynomolgus liver microsomes at 37 °C for 2 and 24 h. […]
(§3) For the comparison of RD2 metabolite profiles across species (see 2.3), mobile phases were acetonitrile (A) and water (B) each supplemented with 0.1% TFA. […] The amount of the purified HSM-3 was calculated based on a calibration curve of 10 to 100 µM RD2 extracted from human liver microsomes.

[2] = Comparison of RD2 metabolite profiles across species: rat liver microsomes; assay type: in vitro ADME; details: rat microsome batches, LC-MS
Method: as §1, §2, §3

MTT cell viability assay = assay type: cell-based, rat; details: cell viability
Method: (§4) Rat PC12 (pheochromocytoma) cells (Leibniz Institute DSMZ, Braunschweig, Germany) were cultivated in Dulbecco’s Modified Eagle Medium (DMEM) supplemented with 10% fetal bovine serum, 5% horse serum and 1% penicillin-streptomycin. 10,000 cells per well were seeded on collagen A-coated 96-well plates (Thermo Fisher Scientific, Waltham, USA) and incubated in a 95% humidified atmosphere with 5% CO2 at 37 °C for 24 h. Samples with untreated RD2 and RD2 or HSM-3 purified from human liver microsomes (see 2.8) in 10 mM sodium phosphate buffer (pH 7.4) were prepared. Buffer without peptides and Triton X-100 (cytotoxic compound) served as controls. The samples were added to the PC12 cells in quadruple and incubated in 95% humidified atmosphere with 5% CO2 at 37 °C for 24 h. Final concentrations were 2 µM untreated RD2, purified RD2, purified HSM-3 and 0.125% Triton X-100. Cell viability was then measured using the Cell Proliferation Kit I (MTT) (Roche, Basel, Switzerland) according to the manufacturer’s instruction. The final absorbance of the formazan product was determined as the absorbance at 570 nm subtracted by the absorbance at 660 nm. All results were normalized to cells that were treated with buffer only. The experiments were performed in triplicate.

[3] = Stability of purified HSM-3 stored in solution (MALDI-MS, UHPLC-ESI-QTOF-MS); assay type: physicochemical; details: stored in solution at low temperatures
[4] = Comparison of RD2 metabolite profiles across species: human liver microsomes; assay type: in vitro ADME
Method: as §1
(§5) For the stability tests, 150 µM RD2 or L-RD2 was incubated in SGF, SIF, human plasma and human liver microsomes in triplicate at 37 °C with slight shaking for different time periods. To prevent microbial contaminations in long-term plasma incubations, 0.1% sodium azide was added to the solutions. Microsomal long-term activity was examined by incubating microsomes without peptide for up to 24 h and adding L-RD2 after 8 and 24 h. The ability to degrade L-RD2 served as indicator for their activity. For the comparison of RD2 metabolite profiles across species, 150 µM RD2 was incubated in human, rat and cynomolgus liver microsomes at 37 °C for 2 and 24 h. The peptides were extracted by precipitating the proteins with trichloroacetic acid (TCA) and subsequent centrifugation, as described previously in Elfgen et al.[24]. Peptides immediately extracted from the media and precipitated media without peptides served as controls.
For the comparison of RD2 metabolite profiles across species (see 2.3), mobile phases were acetonitrile (A) and water (B) each supplemented with 0.1% TFA. The gradient ran from 0 to 100% solvent A and is described in detail in Table S1. The chromatographic RD2 metabolite profiles were screened for potential human-specific metabolites. RD2 and the major RD2 metabolite present after 24 h of incubation in human liver microsome batches 7 and 8, HSM-3, were purified by RP-HPLC. Mobile phases were acetonitrile (A) and water (B) each supplemented with 0.15% TFA. The samples were separated isocratically at 10% solvent A for 30 min. RD2 as well as HSM-3 were collected and the samples were freeze-dried subsequently. The amount of the purified HSM-3 was calculated based on a calibration curve of 10 to 100 µM RD2 extracted from human liver microsomes.

[5] = system: Rat PC12 (pheochromocytoma) cells; experiment: MTT cell viability assay; assay type: cell-based; details: 0.125% Triton X-100, PC12 cells, 24 h, MTT
Method: as §4

CYP1A = molecular target: T1, CYP1A (Homo sapiens, UniProt P05177); experiment: CYP isoform inhibition in human liver microsomes (Cyprotex); details: human, human liver microsomes, probe ethoxyresorufin (0.5 µM)
T1 sequence (P05177 2-516): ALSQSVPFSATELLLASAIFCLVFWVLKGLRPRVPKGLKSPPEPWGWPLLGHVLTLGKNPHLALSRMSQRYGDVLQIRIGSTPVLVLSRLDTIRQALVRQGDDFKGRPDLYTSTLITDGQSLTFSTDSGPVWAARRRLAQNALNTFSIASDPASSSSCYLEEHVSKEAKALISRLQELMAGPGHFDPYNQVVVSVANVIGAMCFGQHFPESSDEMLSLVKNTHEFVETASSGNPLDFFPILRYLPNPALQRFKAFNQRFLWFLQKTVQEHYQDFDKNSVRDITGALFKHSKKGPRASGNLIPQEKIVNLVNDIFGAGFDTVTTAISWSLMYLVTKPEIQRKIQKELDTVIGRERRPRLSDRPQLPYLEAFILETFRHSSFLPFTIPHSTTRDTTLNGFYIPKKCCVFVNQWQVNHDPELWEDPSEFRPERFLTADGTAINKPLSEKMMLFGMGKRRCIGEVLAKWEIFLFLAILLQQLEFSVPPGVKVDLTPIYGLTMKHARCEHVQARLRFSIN
Method: The experiments were performed by Cyprotex. […] The reactions were terminated by methanol and the generated metabolites were monitored by LC-MS/MS or fluorescence. […] All assays were performed sevenfold. […] For all other substrates, the termination plates were centrifuged at 2,500 rpm and 4 °C for 30 min and aliquots of the supernatants were combined and transferred to fresh 96-well plates. Formic acid in deionized water (final concentration 0.1%) containing internal standard was added to the supernatants prior to cassette analysis by LC-MS/MS. A decrease in the formation of the metabolite compared to the vehicle control was used to calculate the IC50 values.

[6] = Stability in human liver microsomes, RP-HPLC / UHPLC-ESI-QTOF-MS; assay type: in vitro ADME
Method: as §1, §5
For sample analysis from stability tests (see 2.3), mobile phases were acetonitrile (A) and water (B) each supplemented with 0.15% trifluoroacetic acid (TFA) (v/v). The samples were measured isocratically at 10% solvent A for 30 min. This run conditions allowed us to detect smallest chemical changes including the differentiation between the original compound and a deamidated version (Fig. S1). RD2 and L-RD2 can potentially be deamidated at two sites, the C-terminus and the asparagine at position seven. Peak areas of the unmetabolized peptides after different incubation times were normalized to the peptides’ peak areas after direct extraction from the media. […] A chromatographic metabolite profile of L-RD2 in SIF was recorded with the same mobile phases but using a gradient from 0 to 30% solvent A in 30 min. […]

[7] = Stability in human plasma, RP-HPLC; assay type: in vitro ADME; details: female, 37 °C
Method: as §1, §5
For sample analysis from stability tests (see 2.3), mobile phases were acetonitrile (A) and water (B) each supplemented with 0.15% trifluoroacetic acid (TFA) (v/v). The samples were measured isocratically at 10% solvent A for 30 min. This run conditions allowed us to detect smallest chemical changes including the differentiation between the original compound and a deamidated version (Fig. S1). RD2 and L-RD2 can potentially be deamidated at two sites, the C-terminus and the asparagine at position seven. Peak areas of the unmetabolized peptides after different incubation times were normalized to the peptides’ peak areas after direct extraction from the media. […] A chromatographic metabolite profile of L-RD2 in SIF was recorded with the same mobile phases but using a gradient from 0 to 30% solvent A in 30 min.

[8] = Stability in simulated gastric fluid (SGF), RP-HPLC; assay type: in vitro ADME; details: 37 °C, read-out: peptide degraded
Method: as §1, with “The liver microsomes were diluted in an NADPH regenerating system (NRS).” left out
(§6) For sample analysis from stability tests (see 2.3), mobile phases were acetonitrile (A) and water (B) each supplemented with 0.15% trifluoroacetic acid (TFA) (v/v). The samples were measured isocratically at 10% solvent A for 30 min. […] A chromatographic metabolite profile of L-RD2 in SIF was recorded with the same mobile phases but using a gradient from 0 to 30% solvent A in 30 min.

[9] = Stability in simulated intestinal fluid (SIF), RP-HPLC; assay type: in vitro ADME; details: a few seconds
Method: as §1, §2, §6

[10] = molecular target: T2, human D-amino acid oxidase (hDAAO) (Homo sapiens, UniProt P14920); experiment: hDAAO activity assay (substrate test); assay type: biochemical; details: 0.2 mM D-alanine as substrate, 2 h incubation
T2 construct: made in house; host or cells: E. coli
T2 sequence (P14920 whole entry): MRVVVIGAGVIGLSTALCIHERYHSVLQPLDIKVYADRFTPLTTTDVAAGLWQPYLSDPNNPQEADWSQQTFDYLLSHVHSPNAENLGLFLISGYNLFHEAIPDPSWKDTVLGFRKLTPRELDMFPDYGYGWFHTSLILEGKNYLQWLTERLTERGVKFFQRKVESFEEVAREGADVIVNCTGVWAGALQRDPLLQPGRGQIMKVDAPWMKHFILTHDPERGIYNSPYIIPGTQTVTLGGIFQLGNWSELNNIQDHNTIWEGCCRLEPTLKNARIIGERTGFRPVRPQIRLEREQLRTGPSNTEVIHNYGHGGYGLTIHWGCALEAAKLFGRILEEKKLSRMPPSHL
Method: (§7) For hDAAO activity and inhibition assays, the tested substances were incubated with 0.17 U/mL recombinant hDAAO, 0.1 U/mL horseradish peroxidase (Roche, Switzerland) and 4 µM flavin adenine dinucleotide (FAD) in 50 mM sodium phosphate buffer (pH 7.4). […] The Amplex UltraRed reagent is a fluorogenic substrate for horseradish peroxidase that reacts with the hydrogen peroxide produced by the oxidative deamination of D-amino acids to build Amplex UltroxRed, a fluorescent reaction product, which served as indicator for hDAAO activity. All enzymatic assays were conducted at room temperature in 96-well plate format using an automated liquid-handler system (epMotion 5075; Eppendorf, Hamburg, Germany). Recombinant hDAAO was overexpressed in E. coli and purified as previously reported.
To investigate whether RD2 acts as substrate for hDAAO, the enzyme was incubated with 2.9 mM RD2, horseradish peroxidase and FAD for up to 6 h and the fluorescence signal of the Amplex UltroxRed reagent was measured (sample values). Positive control measurements using 0.2 mM D-alanine as substrate were performed in parallel. Additionally, negative control measurements without substrates were performed. The relative emission at 590 nm was determined by subtracting control measurements to sample values.

[11] = molecular target: T2, human D-amino acid oxidase (hDAAO); experiment: hDAAO inhibition assay; assay type: biochemical; details: 7.5 mM D-serine, 30 min
Method: as §7
To examined whether RD2 inhibits hDAAO activity, the enzyme was incubated with 7.5 mM D-serine alone and together with 0 to 625 µM RD2 or sodium benzoate (a known hDAAO inhibitor)[30], horseradish peroxidase and FAD for 30 min and the fluorescence signal of Amplex UltroxRed was recorded. hDAAO residual activity in the presence of different concentrations of RD2 or sodium benzoate was expressed relatively to the values recorded in the absence of ligands (set as 100% activity). The data were fit to a four-parameter equation to determine the curve top, bottom, IC50 and Hill slope.

detection of HSM-3 after incubation of RD2 [1]: not detectable
detection of HSM-3 after incubation of RD2 [2]: not detectable
metabolite relative to the parent compound ([4]; human microsome batches 7 and 8, 2 h): 1% and 5%
metabolite relative to the parent compound ([4]; human microsome batches 7 and 8, 24 h): 31% and 52%
detection of HSM-3 after incubation of RD2 ([4]; other six human microsome batches, LC-MS): not detectable
Molecule: CC(C)C[C@@H](NC(=O)[C@@H]([C@H](C)O)N1CN2CCC[C@@H]2C1=O)C(=O)N[C@H](Cc1c[nH]cn1)C(=O)N[C@@H](C(=O)N[C@H](Cc1c[nH]cn1)C(=O)N[C@H](CC(N)=O)C(=O)N[C@H](CCCNC(=N)N)C(=O)N[C@H](CCCNC(=N)N)C(=O)N[C@H](CCCNC(=N)N)C(=O)N[C@H](CCCNC(=N)N)C(=O)N[C@H](CCCNC(=N)N)C(N)=O)[C@H](C)O [HSM-3] (X1-[dL][dH][dT][dH][dN][dR][dR][dR][dR][dR]-NH2; C-terminus assumed)
viability at 2 µM (MTT cell viability assay): 99 ± 3%
stability of purified HSM-3 in solution [3]: instable and reacted back to RD2

Molecule: Triton X-100 [reference compound]
cell viability [5]: 14 ± 1%

Molecule: O=c1cc(-c2ccccc2)oc2c1ccc1ccccc12 [Alpha-naphthoflavone, reference compound]
IC50 (CYP1A): 0.0781 µM

metabolised at 24 h, 150 µM ([7]; 150 µM, within one day, read-out: peptide degraded): 92 ± 4%
half-life at 150 µM ([7]; read-out: half-life (first order kinetics fit) (converted)): 2 h
metabolised at 24 h, 150 µM [8]: 23 ± 4%
Molecule: PTLHTHNRRRRR-NH2 [L-RD2, reference compound]
deamidation in human liver microsomes ([6]; UHPLC-ESI-QTOF-MS): increasingly metabolized to the one-fold deamidated species
metabolised at 0.5 h, 150 µM ([6]; pooled human liver microsomes, 150 µM, 37 °C, within 30 min, read-out: peptide degraded): 87 ± 1%
metabolization in SIF ([9]; 150 µM): completely metabolized within a few seconds

recorded emission at 590 nm [10]: 61125 ± 2120 AU
Molecule: C[C@@H](N)C(=O)O [D-alanine]

detection of the peptide after incubation in SIF [9]: could not be detected
Molecule: KLVFFRRRRRR-NH2

Molecule: O=C([O-])c1ccccc1.[Na+] [sodium benzoate]
decrease in hDAAO activity ([11]; 625 µM): 92.8 ± 0.1% and 93 ± 0.1%
IC50 ([11]; read-out: IC50 hDAAO (four-parameter fit)): 7 µM
